Assay results reported in patent US20190192521A1, “Methods of Treating Arid1A-Mutated Cancers With HDAC6 Inhibitors and EZH2 Inhibitors” (The Wistar Institute of Anatomy and Biology, priority 2016, published 2019).

Legend:
[1] = test system: ovarian clear cell carcinoma cell lines with known ARID1A mutational status; test: colony formation assay, panel of ovarian clear cell carcinoma cell lines with or without ARID1A mutation; assay type: cell-based, human; details: 12 days
Protocol: After 12 days culture, integrated density of colony formed by the indicated cells was quantified using NIH Image J software, and values were normalized to vehicle control. Data represent triplicates from independent experiments. Error bars represent S.E.M. The p-value was calculated via two-tailed t-test.
Indicated ovarian clear cell carcinoma cell lines with known ARID1A mutational status were treated with the indicated concentration of HDAC6 inhibitor CAY10603 or vehicle control in a colony formation assay. After 12 days culture, integrated density of colony formed by the indicated cells was quantified using NIH Image J software, and values were normalized to vehicle control. Data represent triplicates from independent experiments. Error bars represent S.E.M.
(§1) Colony formation assays were performed as follows. Cell lines were infected with lentivirus pLKO.1-shRNAs or pLKO.1-control with puromycin selection marker. Infected cells were selected with 1 μg/mL of puromycin for 72 hours and the selected cells were seeded in 12-well or 24-well plates. Cell medium was changed every three days with appropriate drug doses for 14 days or until control wells became confluent. Colonies were washed twice with PBS and fixed with 10% methanol and 10% acetic acid in distilled water. Fixed colonies were stained with 0.005% crystal violet. Integrated density was measured using NIH ImageJ software.

[2] = test system: cells derived from Apc−/−/Pten−/−/Arid1a−/− and Apc−/−/Pten−/− tumours; test: ACY1215 sensitivity of cells derived from mouse endometrioid tumours; assay type: cell-based
[3] = test system: ARID1A wild-type RMG1 cells; test: apoptosis (Annexin V, cleaved caspase 3, cleaved PARP p85) in ARID1A wild-type cells; assay type: cell-based, human; details: 1.25 μM
Protocol: Expression of apoptotic markers cleaved caspase 3 and cleaved PARP p85 by immunoblot. GAPDH expression was used as a loading control.
For immunoblotting, protein was isolated as described in Bitler et al. Nat. Med. 2015, 21, 231-238. Briefly, protein was extracted with RIPA buffer (150 mM NaCl, 1% NP40, 0.5% sodium deoxycholate, 0.1% SDS, 50 mM Tris pH 8.0, and 1 mM PMSF). Protein was separated on a SDS-PAGE and transferred to PVDF membrane. For immunoblot of p53 post-translation modifications, cells were treated with a proteasome inhibitor MG132 (10 μM) to stabilize p53 protein.
Annexin V and mitochondria membrane potentials were measured as follows. Phosphatidylserine externalization was detected using an Annexin V staining kit (Life Technologies) following the manufacturer's instructions. To measure change in mitochondria membrane potential cells were treated with 200 nM of tetramethylrhodamine, ethyl ester (TMRE; Abcam) for 15 min at 37° C. Annexin V and TMRE-positive cells were detected using the LSR18 and analyzed with the FlowJo software module.

[4] = test system: ARID1A-mutated OVISE cells; test: growth inhibition with or without p53 knockdown, OVISE; assay type: cell-based, human
Protocol: Growth inhibition was calculated based on integrated density as measured in NIH ImageJ, and values were normalized to vehicle control. Data is representative of 3 independent experiments. Error bars represent S.E.M. p-value calculated via two-tailed t-test.
as §1

[5] = test system: p53K120Ac in ARID1A-mutated TOV21G cells; test: mitochondrial localization of p53K120Ac (immunofluorescence, cellular fractionation); assay type: cell-based, human; details: 1.25 μM
From the text: FIG. 42 illustrates that apoptosis induced by HDAC6 inhibition in ARD1A-mutated cells correlates with mitochondrial localization of p53K120Ac and a decrease in mitochondrial membrane potential. […] Images were captured using confocal microscopy.
Mean of three independent experiments with S.E.M.
Expression of p53K120Ac, mitochondrial marker TOM20, and total p53 in the indicated fractions was examined by immunoblot. GAPDH expression was used as a loading control.
Immunofluorescence and immunohistochemical staining was performed as follows. Immunofluorescence was performed after 48 hours as indicated by fixing samples in 4% paraformaldehyde and permeabilizing with 0.5% Triton-X. Samples were incubated with primary antibodies for 2 hours at room temperature, highly cross absorbed secondary antibodies (Invitrogen) for 1 hour at room temperature and mounted with prolong anti-fade reagent (Invitrogen). Immuno-stained cells were imaged using a Leica Confocal microscope. […] Bitler et al. Nat. Med. 2015, 21, 231-238; Bitler et al. Cancer Research 2011, 71, 6184-6194. Expression of the stained markers was scored using a histologic score (H score) as previously described. McCarty, Jr. et al. Cancer research 1986, 46, 4244s-4248s.
Mitochondria were isolated using the Mitochondria Isolation Kit (Thermo Fisher Scientific). […]

O=C(CCCCCCNC(=O)c1cnc(N(c2ccccc2)c2ccccc2)nc1)NO [rocilinostat, 2-(diphenylamino)-N-(7-(hydroxyamino)-7-oxoheptyl)pyrimidine-5-carboxamide]
sensitivity of ARID1A-mutated cells compared with ARID1A wild-type cells [1]: more sensitive | sensitivity of Apc−/−/Pten−/−/Arid1a−/− tumour cells compared with Apc−/−/Pten−/− tumour cells [2]: more sensitive | apoptosis in ARID1A wild type cells [3]: did not induce a significant increase in apoptosis | markers of apoptosis in ARID1A wild-type cells with ARID1A knockdown ([3]; shARID1A): significantly increased markers of apoptosis | effect of p53 knockdown on apoptosis and growth inhibition induced by the compound [4]: significantly impaired the apoptosis and growth inhibition | p53K120Ac in the mitochondrial fraction ([5]; cellular fractionation): increase in p53K120Ac in the mitochondrial fraction | co-localization of p53K120Ac and mitochondrial marker TOM20 ([5]; immunofluorescence): significant increase in co-localization
